This is an account of results in ChEMBL document CHEMBL5137094, “Construction of Covalent Bisubstrate Inhibitor of Protein Kinase Reacting with Cysteine Residue at Substrate-Binding Site” (J Med Chem, 2022).

For data set [1], the target named is T1, cAMP-dependent protein kinase catalytic subunit alpha (Homo sapiens, UniProt P17612). Kind of data set: Displacement of ARC-1063 fluorescent probe from recombinant human PKAC-alpha assessed as dissociation half life preincubated for 1 hr followed by photoluminescent probe addition by time-gated luminescence intensity based assay.
The target of data set [2] is T1, cAMP-dependent protein kinase catalytic subunit alpha. Kind of data set: Binding affinity to human recombinant PKAC-alpha assessed as reduction in TGLI signal at 10 uM pretreated with compound followed by ARC-1063 fluorescent probe addition by time-gated luminescence intensity based displacement assay. Conditions: time 60-480 min, TDE = time-dependent effect.
For data set [3] the target is unchanged. Kind of data set: Binding affinity to human recombinant PKAC-alpha assessed as inactivation constant incubated for 1 hr by time-gated luminescence intensity based displacement assay.
The target is the same in data set [4]. Kind of data set: Covalent inhibition of human recombinant PKAC-alpha assessed as inhibition constant.
Data set [5] shares this target. Kind of data set: Binding affinity to human recombinant PKACalpha assessed as compound-protein adduct formation by measuring half life at 30 degreeC.
For data set [6] the target is unchanged. Kind of data set: Inhibition of ARC-1063 fluorescent probe binding to recombinant human PKAC-alpha incubated for 1 hr by time-gated luminescence intensity based displacement assay.
The target is the same in data set [7]. Kind of data set: Inhibition of ARC-1063 fluorescent probe binding to recombinant human PKAC-alpha incubated for 22 hrs by time-gated luminescence intensity based displacement assay.
The target is the same in data set [8]. Kind of data set: Irreversible inhibition of ARC-1063 fluorescent probe binding to recombinant human PKAC-alpha incubated for 22 hrs followed by probe addition at 20 nM and further incubated for 1 hr by time-gated luminescence intensity based displacement assay.
Data set [9] has the same target. Kind of data set: Binding affinity to human recombinant PKAC-alpha assessed as inactivation constant measured upto 60 mins by Western blot analysis. (In general: A western blot detects proteins with antibodies after separation by electrophoresis.)
For data set [10] the target is unchanged. Kind of data set: Displacement of ARC-1063 fluorescent probe from recombinant human PKAC-alpha assessed as dissociation equilibrium constant preincubated for 1 hr followed by photoluminescent probe addition by time-gated luminescence intensity based assay.
For data set [11] the target is unchanged. Kind of data set: Displacement of ARC-1063 fluorescent probe from recombinant human PKAC-alpha assessed as binding constant (kon) preincubated for 1 hr followed by photoluminescent probe addition by time-gated luminescence intensity based assay.
The nature of data set [12]: GSH reactivity in potassium phosphate buffer at pH 7.4 assessed as half life at 0.15 mM at 37 degreeC measured for 30 to 60 mins by HPLC-MS analysis. As to conditions: potassium phosphate buffer with GSH, time 30-60 min. It is filed as physicochemical.

Consider `CC[C@H](C)[C@H](NC(=O)CCC(=O)N[C@@H](CCCCNC(=O)[C@@H](CCCNC(=N)N)NC(=O)CCCCCCCC(=O)N1CCN(c2ncnc3[nH]ccc23)CC1)C(N)=O)C(=O)NCC(=O)CF`, for which the T1/2 in data set [1] is more than 2.5 h; in data set [5], 5.76 h. For the same molecule, the Activity result in [2] is “Tde”. Further, the Kinact in data set [3] was 3.3 10^-5/s. For the same molecule, in data set [4], the Ki came to 4.2 nM.

On to `CC[C@H](C)[C@H](NC(=O)CCC(=O)N[C@@H](CCCCNC(=O)[C@@H](CCCNC(=N)N)NC(=O)CCCCCCCC(=O)N1CCN(c2ncnc3[nH]ccc23)CC1)C(=O)N[C@H](CCCNC(=N)N)C(N)=O)C(=O)NCC(=O)CF`, for which the figures for the IC50 in data set [6], in data set [7] and in data set [8] were 1200 nM, 500 nM and 800 nM, respectively. Besides, the figures for the T1/2 in data set [1] and in data set [5] were more than 2.5 h and 2.52 h, respectively. Also, in data set [2], the Activity result is “Tde”. Moreover, the Kinact in [3] was 7.7 10^-5/s. Also, the Ki in data set [4] stood at 0.63 nM.

For the molecule `CC[C@H](C)[C@H](NC(=O)CCC(=O)N[C@@H](CCCCNC(=O)[C@@H](CCCNC(=N)N)NC(=O)CCCCCCCC(=O)N1CCN(c2ncnc3[nH]ccc23)CC1)C(=O)N[C@H](CCCNC(=N)N)C(=O)N[C@H](CCCNC(=N)N)C(=O)N[C@H](CCCNC(=N)N)C(N)=O)C(=O)NCC(=O)CF`, in [2], the Activity entry was “Tde”. Also, the Kinact in data set [3] is 5.1 10^-4/s; in data set [9] it was 4.2 10^-4/s. Moreover, in data set [4], the Ki was 0.0068 nM.

Regarding `CC[C@H](C)[C@H](NC(=O)CCC(=O)N[C@@H](CCCCNC(=O)[C@@H](CCCNC(=N)N)NC(=O)CCCCCCCC(=O)N1CCN(c2ncnc3[nH]ccc23)CC1)C(=O)N[C@H](CCCNC(=N)N)C(=O)N[C@H](CCCNC(=N)N)C(=O)N[C@H](CCCNC(=N)N)C(N)=O)C(=O)NCC(C)=O`, the IC50 in data set [6] worked out at 5.6 nM. Besides, the Kd in data set [10] came to 0.0049 nM. Further, in data set [1], the T1/2 was 0.185 h. Also, the K in data set [11] is 2.2 10^8/M/s.

In the case of `CC[C@H](C)[C@H](NC(=O)CCC(=O)N[C@@H](CCCCNC(=O)[C@@H](CCCNC(=N)N)NC(=O)CCCCCCCC(=O)N1CCN(c2ncnc3[nH]ccc23)CC1)C(=O)N[C@H](CCCNC(=N)N)C(N)=O)C(=O)NCC(C)=O`, the concentration for half-maximal inhibition (IC50) in data set [6] came to 790 nM. Also, the Kd in data set [10] was found to be 0.63 nM. Further, the T1/2 in data set [1] came to 0.00833 h. The K in data set [11] was 3.8 10^7/M/s.

For `N=C(N)NCCC[C@@H](NC(=O)CCCCCNC(=O)[C@@H](CCCNC(=N)N)NC(=O)CCCCCCCC(=O)N1CCN(c2ncnc3[nH]ccc23)CC1)C(N)=O`, the IC50 was determined as 400 nM in data set [6], 500 nM in data set [7] and 5300 nM in data set [8].

In the case of `NC(=O)CF` [MONOFLUOROACETAMIDE], in [12], the half-life at 150 µM is more than 70 h.

As for `CC[C@H](C)[C@H](NC(=O)CCC(=O)N[C@@H](CCCCNC(=O)[C@@H](CCCNC(=N)N)NC(=O)CCCCCCCC(=O)N1CCN(c2ncnc3[nH]ccc23)CC1)C(N)=O)C(=O)NCC(C)=O`, the IC50 in data set [6] was determined as 6100 nM. Further, the Kd in data set [10] worked out at 4.2 nM. Besides, the T1/2 in data set [1] amounted to 0.00167 h. In [11], the K is 3.3 10^7/M/s.

Broadly, the IC50 is the concentration needed to halve the response being measured. By Kd is commonly meant the constant that tells how readily two partners part at equilibrium. A word on the half-life: it is the time in which the quantity being followed falls by half.
